Tested on: ghost pepper ACS1
Test: HPLC-based method to measure the activity of ghost pepper ACS1 against carboxylic acids
Format: biochemical, ghost chili pepper
Conditions: for ACS1 activity with 8-methyl-trans-6-nonenoic acid or 8-methylnonanoic acid as a substrate (FIG. 9): HPLC profiles of enzymatic products, 6E compared with 8M; for activities of ACS1 against various carboxylic acids (FIG. 8): 200 μM carboxylic acids as substrate, 30 min, acyl-CoA formation by HPLC at 257 nm, 100 mM Tri buffer, pH8.0 (FIG. 8 legend)
Protocol: C2, acetic acid; C4, butyric acid; C6, hexanoic acid, C8,caprylic acid; C10, capric acid; C12, lauric acid; C14, myristic acid; C16, palmitic acid; C18, stearic acid. The assay was performed in 100 mM Tri buffer, pH8.0.
Applicants used an HPLC-based method to measure the activity of ghost pepper ACS1 (Chen et al., 2011). Briefly, reaction mixtures (400 μL) contained 0.1 M Tris-HCl, […], 2 mM DTT, 5 mM ATP, 10 mM MgCl2, 0.5 mM CoA, 0.1% Triton and 200 μM carboxylic acids. The reaction was initiated by adding 20 μl of purified enzyme and stopped after 30 min by addition of 20 μl al acetic acid. HPLC was performed with Dionex-UltiMate® 3000 LC Systems (Thermo Scientific) using an Acclaim® 120 C18 reversed-phase column (Thermo Scientific; 3 μ, 120 Å, 150×3 mm). The mobile phase consisted of solvent A (0.1% trifluoroacetic acid) and solvent B (acetonitrile). The gradient elution procedure was as follows: 0 to 5 min, 5% of B; 5 to 9 min, a linear gradient from 5 to 80% of B; 9 to 11 min, 80% of B; 11 to 12 min, 5% of B. The flow rate was 0.6 ml/min. The diode array detector collected data in the 200- to 400-nm range. For detection and quantification of substrate and products, peak areas were measured at 257 nm.

In the case of `CC(C)/C=C/CCCCC(=O)O` [6E, 8-methyl-trans-6-nonenoic acid], the “ACS1 activity with 8-methyl-trans-6-nonenoic acid or 8-methylnonanoic acid as a substrate (FIG. 9)” value is reported as “higher activity”.

For `CC(C)CCCCCCC(=O)O` [8M, 8-methylnonanoic acid], the “ACS1 activity with 8-methyl-trans-6-nonenoic acid or 8-methylnonanoic acid as a substrate (FIG. 9)” value was “showed activities”.

With `CC(=O)O` [acetic acid] the “activities of ACS1 against various carboxylic acids (FIG. 8)” value (shortened to “activities of ACS1”) was “did not show any activity”.

In the case of `CCCC(=O)O` [butyric acid], the “activities of ACS1” value is reported as “did not show any activity”.

With `CCCCCCCCCC(=O)O` [capric acid] the “activities of ACS1” value was “highest activity”.
